Activity calls are given as the source filed them. The rule behind the calls is not given here.
Tests used:
[1] = Selectivity index, ratio of IC50 for cytotoxicity against African green monkey Vero cells to IC50 for chloroquine-sensitive Plasmodium falciparum D6; type: toxicity, cell-based; settings: read-out: Ratio IC50
Plasmodium falciparum [2] = assay: Antimalarial activity against chloroquine-sensitive Plasmodium falciparum D6 infected in RBC after 72 hrs by LDH release assay; type: functional, organism-based; settings: D6, 72 h
[3] = Selectivity index, ratio of IC50 for cytotoxicity against African green monkey Vero cells to IC50 for chloroquine-resistant Plasmodium falciparum W2; type: toxicity, cell-based; settings: read-out: Ratio IC50
Vero [4] = assay: Cytotoxicity against African green monkey Vero cells up to 10 uM after 48 hrs by neutral red assay; type: cell-based; settings: chlorocebus sabaeus
Plasmodium falciparum [5] = assay: Antimalarial activity against chloroquine-resistant Plasmodium falciparum W2 infected in RBC after 72 hrs by LDH release assay; type: functional, organism-based; settings: W2, 72 h
[6] = Binding affinity to hemin assessed as 1:1 stoichiometry for compound-hemin complex up to 12 uM at pH 5.6 by Job's plot analysis
[7] = Binding affinity to hemin assessed as 1:1 stoichiometry for compound-hemin complex up to 12 uM at pH 7.4 by Job's plot analysis
mu-oxodimeric heme = assay: Binding affinity to mu-oxodimeric heme assessed as 1:1 up to 20 uM at pH 5.8 by titration method
Vero [8] = assay: Cytotoxicity against African green monkey Vero cells after 48 hrs by neutral red assay; type: cell-based; settings: chlorocebus sabaeus
Plasmodium falciparum [9] = assay: Potency index, ratio of chloroquine IC50 to compound IC50 for antimalarial activity against chloroquine-resistant Plasmodium falciparum W2 infected in RBC; type: functional

## Cc1cc(N2CCOCC2)nc(N(CCNc2ccnc3cc(Cl)ccc23)Cc2ccccn2)n1
[1]
  selectivity ratio: > 31.2
Plasmodium falciparum [2]
  IC50: 311 nM
[3]
  selectivity ratio: > 39.1
Vero [4]
  Activity: Non-Toxic
Plasmodium falciparum [5]
  IC50: 248 nM

## CCN(CC)CCCC(C)Nc1ccnc2cc(Cl)ccc12 (stereo unspecified) [CHLOROQUINE]
Vero [4]
  Activity: Non-Toxic

## Cc1cc(N(CCCNc2ccnc3cc(Cl)ccc23)Cc2ccccn2)nc(N2CCOCC2)n1
[1]
  selectivity ratio: > 82.5
Plasmodium falciparum [2]
  IC50: 114 nM
[3]
  selectivity ratio: > 18.5
Vero [4]
  Activity: Non-Toxic
Plasmodium falciparum [5]
  IC50: 511 nM

## Cc1cc(N2CCCCC2)nc(N(CCCNc2ccnc3cc(Cl)ccc23)Cc2ccccn2)n1
[1]
  selectivity ratio: > 7.9
Plasmodium falciparum [2]
  IC50: 1190 nM
[3]
  selectivity ratio: > 10
Vero [4]
  Activity: Non-Toxic
Plasmodium falciparum [5]
  IC50: 945 nM

## C[C@@H]1CC[C@H]2[C@@H](C)C(=O)O[C@@H]3O[C@@]4(C)CC[C@@H]1[C@]32OO4 [ARTEMISININ]
[1]
  selectivity ratio: > 49.2
Plasmodium falciparum [2]
  IC50: 17.1 nM
[3]
  selectivity ratio: > 52
Vero [4]
  Activity: Non-Toxic
Plasmodium falciparum [5]
  IC50: 16.2 nM

## Cc1cc(N(CCNc2ccnc3cc(Cl)ccc23)Cc2ccccn2)nc(N2CCCC2)n1
[1]
  selectivity ratio: > 331
Plasmodium falciparum [2]
  IC50: 30 nM
[3]
  selectivity ratio: > 70
Vero [4]
  Activity: Non-Toxic
Plasmodium falciparum [5]
  IC50: 143 nM

## Cc1cc(N(CCNc2ccnc3cc(Cl)ccc23)Cc2ccccn2)nc(Cl)n1
[1]
  selectivity ratio: > 46.6
Plasmodium falciparum [2]
  IC50: 233 nM
[3]
  selectivity ratio: > 22
Vero [4]
  Activity: Non-Toxic
Plasmodium falciparum [5]
  IC50: 492 nM

## Cc1cc(N(CCNc2ccnc3cc(Cl)ccc23)Cc2ccccn2)nc(N2CCN(C)CC2)n1
[6]
  Activity: 0.5 molar ratio
[7]
  Activity: 0.5 molar ratio
mu-oxodimeric heme
  Activity: Active
Vero [4]
  Activity: Non-Toxic
Plasmodium falciparum [5]
  IC50: 142 nM

## Cc1cc(N(CCNc2ccnc3cc(Cl)ccc23)Cc2ccccn2)nc(N2CCOCC2)n1
[1]
  selectivity ratio: > 64.2
Plasmodium falciparum [2]
  IC50: 152 nM
[3]
  selectivity ratio: > 18.5
Vero [4]
  Activity: Non-Toxic
Plasmodium falciparum [5]
  IC50: 526 nM

## Cc1cc(Cl)nc(N(CCCNc2ccnc3cc(Cl)ccc23)Cc2cccs2)n1
[1]
  selectivity ratio: > 87.2
Plasmodium falciparum [2]
  IC50: 119 nM
[3]
  selectivity ratio: > 22.5
Vero [4]
  Activity: Non-Toxic
Plasmodium falciparum [5]
  IC50: 462 nM

## Cc1cc(N2CCN(C)CC2)nc(N(CCNc2ccnc3cc(Cl)ccc23)Cc2ccccn2)n1
[1]
  selectivity ratio: > 238
Plasmodium falciparum [2]
  IC50: 40 nM
[3]
  selectivity ratio: > 68
Vero [4]
  Activity: Non-Toxic
Plasmodium falciparum [5]
  IC50: 139 nM

## Cc1cc(N2CCOCC2)nc(N(CCCNc2ccnc3cc(Cl)ccc23)Cc2cccs2)n1
[1]
  selectivity ratio: > 167
Plasmodium falciparum [2]
  IC50: 55.8 nM
[3]
  selectivity ratio: > 17.2
Vero [4]
  Activity: Non-Toxic
Plasmodium falciparum [5]
  IC50: 542 nM

## Cc1cc(N2CCCCC2)nc(N(CCNc2ccnc3cc(Cl)ccc23)Cc2ccccn2)n1
[1]
  selectivity ratio: > 38.6
Plasmodium falciparum [2]
  IC50: 252 nM
[3]
  selectivity ratio: > 6.8
Vero [4]
  Activity: Non-Toxic
Plasmodium falciparum [5]
  IC50: 1440 nM

## Cc1cc(N(CCCNc2ccnc3cc(Cl)ccc23)Cc2cccs2)nc(N2CCCC2)n1
[1]
  selectivity ratio: > 229
Plasmodium falciparum [2]
  IC50: 42 nM
[3]
  selectivity ratio: > 47.7
Vero [4]
  Activity: Non-Toxic
Plasmodium falciparum [5]
  IC50: 202 nM

## Cc1cc(N2CCCCC2)nc(N(CCCNc2ccnc3cc(Cl)ccc23)Cc2cccs2)n1
[1]
  selectivity ratio: 161
Plasmodium falciparum [2]
  IC50: 44.6 nM
Vero [8]
  IC50: 7200 nM
[3]
  selectivity ratio: 38.9
Plasmodium falciparum [5]
  IC50: 185 nM

## CCN1CCN(c2cc(C)nc(N(CCNc3ccnc4cc(Cl)ccc34)Cc3ccccn3)n2)CC1
[1]
  selectivity ratio: > 270
Plasmodium falciparum [2]
  IC50: 34 nM
[3]
  selectivity ratio: > 273
Vero [4]
  Activity: Non-Toxic
Plasmodium falciparum [5]
  IC50: 39 nM

## CCN1CCN(c2nc(C)cc(N(CCNc3ccnc4cc(Cl)ccc34)Cc3ccccn3)n2)CC1
[1]
  selectivity ratio: > 326
Plasmodium falciparum [2]
  IC50: 28 nM
[3]
  selectivity ratio: > 98
Vero [4]
  Activity: Non-Toxic
Plasmodium falciparum [5]
  IC50: 93 nM

## Cc1cc(N2CCN(C)CC2)nc(N(CCCNc2ccnc3cc(Cl)ccc23)Cc2cccs2)n1
[1]
  selectivity ratio: > 23.4
Plasmodium falciparum [2]
  IC50: 38.9 nM
[3]
  selectivity ratio: > 45.8
Vero [4]
  Activity: Non-Toxic
Plasmodium falciparum [5]
  IC50: 19.9 nM

## Cc1cc(N2CCCC2)nc(N(CCCNc2ccnc3cc(Cl)ccc23)Cc2ccccn2)n1
[1]
  selectivity ratio: > 9.4
Plasmodium falciparum [2]
  IC50: 1040 nM
[3]
  selectivity ratio: > 25.1
Vero [4]
  Activity: Non-Toxic
Plasmodium falciparum [5]
  IC50: 389 nM

## CCN1CCN(c2nc(C)cc(N(CCCNc3ccnc4cc(Cl)ccc34)Cc3cccs3)n2)CC1
[1]
  selectivity ratio: > 24.8
Plasmodium falciparum [2]
  IC50: 35.8 nM
[3]
  selectivity ratio: > 28.4
Vero [4]
  Activity: Non-Toxic
Plasmodium falciparum [5]
  IC50: 31.2 nM

## Cc1cc(N(CCCNc2ccnc3cc(Cl)ccc23)Cc2cccs2)nc(N2CCN(C)CC2)n1
[1]
  selectivity ratio: > 24.6
Plasmodium falciparum [2]
  IC50: 37 nM
[3]
  selectivity ratio: > 23.5
Vero [4]
  Activity: Non-Toxic
Plasmodium falciparum [5]
  IC50: 38.7 nM

## CCN1CCN(c2nc(C)cc(N(CCCNc3ccnc4cc(Cl)ccc34)Cc3ccccn3)n2)CC1
[1]
  selectivity ratio: > 321
Plasmodium falciparum [2]
  IC50: 28 nM
[3]
  selectivity ratio: > 66
Vero [4]
  Activity: Non-Toxic
Plasmodium falciparum [5]
  IC50: 137 nM

## Cc1cc(N2CCOCC2)nc(N(CCCNc2ccnc3cc(Cl)ccc23)Cc2ccccn2)n1
[1]
  selectivity ratio: > 8.3
Plasmodium falciparum [2]
  IC50: 1140 nM
[3]
  selectivity ratio: > 28.3
Vero [4]
  Activity: Non-Toxic
Plasmodium falciparum [5]
  IC50: 334 nM

## Clc1ccc2c(NCCCNCc3cccs3)ccnc2c1
[1]
  selectivity ratio: > 33.8
Plasmodium falciparum [2]
  IC50: 424 nM
[3]
  selectivity ratio: > 19.1
Vero [4]
  Activity: Non-Toxic
Plasmodium falciparum [5]
  IC50: 75.1 nM

## Cc1cc(N(CCCNc2ccnc3cc(Cl)ccc23)Cc2ccccn2)nc(N2CCCC2)n1
[1]
  selectivity ratio: > 274
Plasmodium falciparum [2]
  IC50: 36 nM
[3]
  selectivity ratio: > 69
Vero [4]
  Activity: Non-Toxic
Plasmodium falciparum [5]
  IC50: 140 nM

## Cc1cc(N(CCCNc2ccnc3cc(Cl)ccc23)Cc2cccs2)nc(N2CCCCC2)n1
[1]
  selectivity ratio: 109
Plasmodium falciparum [2]
  IC50: 83.7 nM
Vero [8]
  IC50: 9150 nM
[3]
  selectivity ratio: 38.9
Plasmodium falciparum [5]
  IC50: 235 nM

## Cc1cc(N2CCN(C)CC2)nc(N(CCCNc2ccnc3cc(Cl)ccc23)Cc2ccccn2)n1
[1]
  selectivity ratio: > 16.7
Plasmodium falciparum [2]
  IC50: 551 nM
[3]
  selectivity ratio: > 48.5
Vero [4]
  Activity: Non-Toxic
Plasmodium falciparum [5]
  IC50: 189 nM

## Cc1cc(N(CCCNc2ccnc3cc(Cl)ccc23)Cc2ccccn2)nc(Cl)n1
[1]
  selectivity ratio: > 7.6
Plasmodium falciparum [2]
  IC50: 1390 nM
[3]
  selectivity ratio: > 33.5
Vero [4]
  Activity: Non-Toxic
Plasmodium falciparum [5]
  IC50: 319 nM

## Cc1cc(N2CCCC2)nc(N(CCCNc2ccnc3cc(Cl)ccc23)Cc2cccs2)n1
[1]
  selectivity ratio: > 26.8
Plasmodium falciparum [2]
  IC50: 35.9 nM
[3]
  selectivity ratio: > 24
Vero [4]
  Activity: Non-Toxic
Plasmodium falciparum [5]
  IC50: 40.1 nM

## Cc1cc(N2CCCC2)nc(N(CCNc2ccnc3cc(Cl)ccc23)Cc2ccccn2)n1
[1]
  selectivity ratio: > 71.7
Plasmodium falciparum [2]
  IC50: 140 nM
[3]
  selectivity ratio: > 11.7
Vero [4]
  Activity: Non-Toxic
Plasmodium falciparum [5]
  IC50: 855 nM

## Cc1cc(N(CCCNc2ccnc3cc(Cl)ccc23)Cc2ccccn2)nc(N2CCN(C)CC2)n1
[1]
  selectivity ratio: > 21.6
Plasmodium falciparum [2]
  IC50: 426 nM
[3]
  selectivity ratio: > 37.8
Vero [4]
  Activity: Non-Toxic
Plasmodium falciparum [5]
  IC50: 243 nM

## Cc1cc(Cl)nc(N(CCCNc2ccnc3cc(Cl)ccc23)Cc2ccccn2)n1
[1]
  selectivity ratio: > 6.3
Plasmodium falciparum [2]
  IC50: 1660 nM
[3]
  selectivity ratio: > 13
Vero [4]
  Activity: Non-Toxic
Plasmodium falciparum [5]
  IC50: 804 nM

## Cc1cc(N(CCCNc2ccnc3cc(Cl)ccc23)Cc2cccs2)nc(Cl)n1
[1]
  selectivity ratio: > 42.2
Plasmodium falciparum [2]
  IC50: 246 nM
[3]
  selectivity ratio: > 17.1
Vero [4]
  Activity: Non-Toxic
Plasmodium falciparum [5]
  IC50: 606 nM

## Cc1cc(N(CCCNc2ccnc3cc(Cl)ccc23)Cc2cccs2)nc(N2CCOCC2)n1
[1]
  selectivity ratio: 168
Plasmodium falciparum [2]
  IC50: 55.2 nM
Vero [8]
  IC50: 9300 nM
[3]
  selectivity ratio: 22.7
Plasmodium falciparum [5]
  IC50: 409 nM

## Cc1cc(N(CCCNc2ccnc3cc(Cl)ccc23)Cc2ccccn2)nc(N2CCCCC2)n1
[1]
  selectivity ratio: > 102
Plasmodium falciparum [2]
  IC50: 93 nM
[3]
  selectivity ratio: > 11.6
Vero [4]
  Activity: Non-Toxic
Plasmodium falciparum [5]
  IC50: 819 nM

## CCN1CCN(c2cc(C)nc(N(CCCNc3ccnc4cc(Cl)ccc34)Cc3cccs3)n2)CC1
[1]
  selectivity ratio: > 27
Plasmodium falciparum [9]
  Ratio IC50: 22
Plasmodium falciparum [2]
  IC50: 32.8 nM
[3]
  selectivity ratio: > 46.8
Vero [4]
  Activity: Non-Toxic
Plasmodium falciparum [5]
  IC50: 18.9 nM

## Cc1cc(Cl)nc(N(CCNc2ccnc3cc(Cl)ccc23)Cc2ccccn2)n1
[1]
  selectivity ratio: 23.2
Plasmodium falciparum [2]
  IC50: 369 nM
[3]
  selectivity ratio: 8.5
Plasmodium falciparum [5]
  IC50: 1010 nM

## Cc1cc(N(CCNc2ccnc3cc(Cl)ccc23)Cc2ccccn2)nc(N2CCCCC2)n1
[1]
  selectivity ratio: > 151
Plasmodium falciparum [2]
  IC50: 65 nM
[3]
  selectivity ratio: > 19.7
Vero [4]
  Activity: Non-Toxic
Plasmodium falciparum [5]
  IC50: 494 nM

Source: ChEMBL document CHEMBL4325903, “N-Substituted aminoquinoline-pyrimidine hybrids: Synthesis, in vitro antimalarial activity evaluation and docking studies” (Eur J Med Chem, 2019)
